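Briefly, cells in 96-well plates were exposed to five compound concentrations for 48 h, and endpoints were estimated by linear interpolation. Here, GI50 denotes the concentration required for 50% inhibition of growth. TGI denotes the concentration required for complete inhibition of growth.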
Legend:
Assay in all cases: DTP human tumour cell line panel, 48 h
[1] = system: SK-MEL-28 melanoma
[2] = system: HOP-62 NSCLC
[3] = system: MCF7 breast
[4] = system: SF-539 CNS
[5] = system: UO-31 renal
[6] = system: SNB-75 CNS
[7] = system: U251 CNS
[8] = system: NCI-H460 lung
[9] = system: BT-549 breast
[10] = system: HCC-2998 colon
[11] = system: UACC-62 melanoma
[12] = system: SR leukemia
[13] = system: MDA-MB-231 breast
[14] = system: SN12C renal
[15] = system: NCI-H23 lung
[16] = system: RXF 393 renal
[17] = system: MOLT-4 leukemia
[18] = system: HCT-15 colon
[19] = system: A498 renal
[20] = system: SF-268 CNS
[21] = system: SF-295 CNS
[22] = system: OVCAR-3 ovarian
[23] = system: MDA-MB-435
[24] = system: HT29 colon
[25] = system: LOX IMVI melanoma
[26] = system: M14 melanoma
[27] = system: NCI-H522 lung
[28] = system: T-47D breast
[29] = system: RPMI-8226 leukemia
[30] = system: OVCAR-5 ovarian
[31] = system: OVCAR-8 ovarian
[32] = system: SK-OV-3 ovarian
[33] = system: A549 NSCLC
[34] = system: 786-0 renal
[35] = system: SK-MEL-2 melanoma
[36] = system: UACC-257 melanoma
[37] = system: SK-MEL-5 melanoma
[38] = system: CCRF-CEM leukemia
[39] = system: K-562 leukemia
[40] = system: CAKI-1 renal
[41] = system: DU-145 prostate
[42] = system: MALME-3M melanoma
[43] = system: NCI/ADR-RES ovarian
[44] = system: HL-60(TB) leukemia
[45] = system: NCI-H226 lung
[46] = system: PC-3 prostate
[47] = system: HOP-92 NSCLC
[48] = system: TK-10 renal
[49] = system: OVCAR-4 ovarian
[50] = system: ACHN renal
[51] = system: IGROV1 ovarian
[52] = system: HCT-116 colon
[53] = system: HS 578T breast
[54] = system: KM12 colon
[55] = system: SW-620 colon
[56] = system: COLO 205 colon
[57] = system: SNB-19 CNS

`COc1ccc(OC)c(N(CCN2C(=O)c3ccccc3C2=O)C(=O)CCl)c1` was tested, and the GI50 [1] was 23.4 µM, the TGI [1] was 91.2 µM and the GI50 [2] was 0.379 µM. For the same compound, the TGI [2] was 1.97 µM, the GI50 [3] was 14.2 µM and the TGI [3] was 43 µM. For the same compound, the GI50 [4] was 1.13 µM, the TGI [4] was 2.68 µM and the GI50 [5] was 0.0667 µM. The TGI [5] was 0.154 µM, the GI50 [6] was 0.288 µM and the TGI [6] was 1.22 µM. The GI50 [7] was 3.74 µM, the TGI [7] was 17.8 µM and the GI50 [8] was 13.5 µM. The TGI [8] was 48.5 µM, the GI50 [9] was 17.9 µM and the TGI [9] was 46.7 µM. For the same compound, the GI50 [10] was 20.4 µM, the TGI [10] was 56 µM and the GI50 [11] was 6.24 µM. It also gave a TGI [11] of 21.6 µM, a GI50 [12] of 0.119 µM and a GI50 [13] of 1.24 µM. The TGI [13] was 7.51 µM, the GI50 [14] was 22.7 µM and the TGI [14] was greater than 100 µM. It also gave a GI50 [15] of 2.26 µM, a TGI [15] of 12.3 µM and a GI50 [16] of 0.615 µM. For the same compound, the TGI [16] was 12.6 µM, the GI50 [17] was 10.3 µM and the TGI [17] was 37.7 µM. For the same compound, the GI50 [18] was 11.6 µM, the TGI [18] was greater than 54.6 µM and the GI50 [19] was 6.81 µM. For the same compound, the TGI [19] was 25.4 µM, the GI50 [20] was 0.931 µM and the TGI [20] was 3.2 µM. It also gave a GI50 [21] of 1.09 µM, a TGI [21] of 2.44 µM and a GI50 [22] of 0.641 µM. For the same compound, the TGI [22] was 1.62 µM, the GI50 [23] was 15.6 µM and the TGI [23] was 66.7 µM. For the same compound, the GI50 [24] was 0.497 µM, the TGI [24] was 2.15 µM and the GI50 [25] was 0.191 µM. It also gave a TGI [25] of 0.406 µM, a GI50 [26] of 24.6 µM and a TGI [26] greater than 100 µM. For the same compound, the GI50 [27] was 0.0631 µM, the TGI [27] was 0.157 µM and the GI50 [28] was 18.9 µM. The TGI [28] was 54.4 µM, the GI50 [29] was 2.06 µM and the TGI [29] was 9.34 µM. For the same compound, the GI50 [30] was 1.42 µM, the TGI [30] was 15.8 µM and the GI50 [31] was 7.5 µM. It also gave a TGI [31] of 46.3 µM, a GI50 [32] of 0.688 µM and a TGI [32] of 2.05 µM. It also gave a GI50 [33] of 9.35 µM, a TGI [33] of 44.7 µM and a GI50 [34] of 0.901 µM. The TGI [34] was 3.1 µM, the GI50 [35] was 12.4 µM and the TGI [35] was 35.1 µM. The GI50 [36] was 20.7 µM, the TGI [36] was 88 µM and the GI50 [37] was 16 µM. It also gave a TGI [37] of 35.3 µM, a GI50 [38] of 0.229 µM and a TGI [38] of 0.542 µM. For the same compound, the GI50 [39] was 21.3 µM, the TGI [39] was greater than 70.4 µM and the GI50 [40] was 0.482 µM. For the same compound, the TGI [40] was 2 µM, the GI50 [41] was 6.09 µM and the TGI [41] was 37.7 µM. For the same compound, the GI50 [42] was 0.706 µM, the TGI [42] was 3.16 µM and the GI50 [43] was 3.31 µM. It also gave a TGI [43] greater than 19.6 µM, a GI50 [44] of 0.202 µM and a TGI [44] of 0.411 µM. For the same compound, the GI50 [45] was 30.9 µM, the TGI [45] was greater than 89.2 µM and the GI50 [46] was 14 µM. For the same compound, the TGI [46] was 67 µM, the GI50 [47] was 0.181 µM and the TGI [47] was 0.48 µM. It also gave a GI50 [48] of 16.9 µM, a TGI [48] of 39.9 µM and a GI50 [49] of 0.23 µM. The TGI [49] was 0.554 µM, the GI50 [50] was 0.831 µM and the TGI [50] was 4.85 µM. For the same compound, the GI50 [51] was 0.121 µM, the TGI [51] was 0.299 µM and the GI50 [52] was 17.7 µM. It also gave a TGI [52] of 59.5 µM, a GI50 [53] of 13.7 µM and a TGI [53] of 68.9 µM. It also gave a GI50 [54] of 0.617 µM, a TGI [54] of 5.17 µM and a GI50 [55] of 15.3 µM. The TGI [55] was greater than 58.5 µM, the GI50 [56] was 13.5 µM and the TGI [56] was 29.3 µM. It also gave a GI50 [57] of 30.4 µM and a TGI [57] greater than 100 µM.
